Experimental data taken from patent publication US20240148776A1, “TUMESCENT SOLUTION WITH B VITAMINS” (priority 2022, published 2024).

Legend:
[1] = test system: acute Herpes zoster (shingles); conditions: cited from earlier work
[2] = Stability of vitamin B12 for injection and of its pink colour; assay type: physicochemical
Procedure: When Klein placed a purchase order for their first vial of injectable B12, they had no idea that the solution would have a red/pink color. When 10 mg in 10 ml of B12 was added to 1,000 ml of TELTA (1:100 dilution of B12), the result was a TELTAB solution with a distinctive pink color. […] They thought the novel pink color would be memorable and an interesting topic of conversation. […] The next conceptual step was the idea that the pink color of TELTAB might be a clever marketing gimmick, which could distinguish TELTAB from all other bags of saline.

[3] = test system: postherpetic neuralgia (PHN); experiment: Tumescent treatment of patients with established postherpetic neuralgia (PHN); assay type: in vivo, human; conditions: B12 added to TEL[AT] in acute zoster
Excerpt: “Hotspot pain” is the area within the dermatome where the zoster pain is clearly the most intense. […] “Elsewhere pain” is zoster pain that affects areas within the dermatome other than the hotspot.

Row | Compound | reduction of zoster-related intensely painful itching compared to placebo ([1]; 2-week protocol of multiple daily injections) [%] | stability of pink pigment over time [2] | stability of nutritional function on exposure to light ([2]; light) | effect on pain of acute Herpes zoster compared to placebo ([1]; B12 1 mg/ml, 2 weeks) | incidence of PHN [3]
1 | Cc1ncc(C[n+]2csc(CCO)c2C)c(N)n1 [Undiluted vitamin B1, Thiamine] | 30 |  |  |  | 
2 | Cobalamin [B12] |  | does not appear to fade over time | not stable when exposed to light | gradually reduce the pain of acute Herpes zoster | reduced the incidence of PHN
